Experimental data taken from patent US5864033A, “Adenosine kinase inhibitors” (priority 1995, dated 1999).
Where “and” joins values, the source holds several entries; their conditions need not be identical. Equal values may be shown once. Entries after “also recorded” stand apart in the source; their conditions may differ.

Tests used:
rat cardiomyocytes = conditions: cited from earlier work
isolated rat hearts = conditions: normoxic, hypoxic, anoxic or ischemic conditions; alone; cited from earlier work
dog hearts = conditions: cited from earlier work
mice = conditions: cited from earlier work
[1] = test system: isolated guinea pig hearts; conditions: absence of ADA inhibition; cited from earlier work
cardiac adenosine kinase = conditions: systemic or, in some cases, oral administration
[2] = test system: neutrophil adherence to endothelial cells; assay: Inhibition of neutrophil adherence to endothelial cells; assay type: cell-based, human; conditions: for inhibition of neutrophil adhesion to endothelial cells: fMLP-stimulated human neutrophils, 2 hours, 37° C.; for reversal of inhibition of neutrophil adhesion by adenosine deaminase: with adenosine deaminase 0.125 U/ml
Method: The ability of an adenosine kinase inhibitor to affect neutrophil adherence to fibroblasts and endothelial cells was evaluated in a cell culture model.
These incubations were carried out in the presence of fMLP-stimulated human neutrophils isolated from whole blood (1.25×10^6 /ml) with or without adenosine deaminase (0.125 U/ml). At the end of the incubation, the medium was removed and the monolayers of fibroblasts or endothelial cells and adherent neutrophils were fixed by addition of formaldehyde (3.7%) and, after washing to remove non-adherent neutrophils, adherent neutrophils were stained with Weigart's hematoxylin and counted under a light microscope.

[3] = test system: pentylenetetrazol (PTZ)-induced seizures in mice; assay: PTZ-induced seizures; assay type: in vivo, male Swiss Webster mice; conditions: for attenuation of chemical and electroshock induced seizures: experimental animal models; for oral anticonvulsant activity: 45 minutes prior to PTZ; for Percent Seizure: 45 min prior to PTZ, N = 7; for Seizure Score: mean ± standard deviation
anesthetized male dogs = assay: Preclinical model of stable angina (repeated pacing-induced ischemia); assay type: in vivo, dog; conditions: intravenous infusion
Method: GP-1-515, was evaluated for its ability to prevent cumulative cardiac dysfunction associated with repeated episodes of pacing-induced ischemia.
Anesthetized male dogs were instrumented to measure regional myocardial wall thickening during right atrial pacing (Young & Mullane, Am. J. Physio., 1991, 261:1570-1577). Animals were subjected to six repeated episodes of pacing. A continuous IV infusion of 1 μg/kg/min of GP-1-515 or saline (control) was administered post pace #1.

[4] = test system: isolated guinea pig ileum longitudinal muscle; assay: Inhibition of contraction in isolated ileum; conditions: for inhibition of contraction in the isolated ileum: electrically stimulated; for reversal of inhibition of contraction: with 8-sulfophenyltheophylline (8SPT) or adenosine deaminase (ADA)
Method: The ability of adenosine kinase inhibition to affect stimulated contraction of muscle strips from the isolated ileum has been investigated.
Parallel platinum electrodes were used to deliver electrical current at 1 minute intervals at a voltage adequate to induce contraction of 90% of maximal. The adenosine kinase inhibitors, GP-1-515 or GP-1-547 were added to the tissue baths at different concentrations, with or without either the adenosine receptor antagonist, 8-sulphophenyltheophylline (8SPT) or adenosine deaminase (ADA), and the effects on contraction monitored.

[5] = test system: canine coronary thrombosis / cyclic flow reductions; assay: Canine model of platelet-induced coronary thrombosis (Folts; cyclic flow reductions); assay type: in vivo, dog
Method: GP-1-515 was tested in a canine model of platelet-induced coronary thrombosis (Folts, J., Circulation, 1991, 83[Suppl. IV]:IV-3-IV-14). In this model, platelets cyclically aggregate and embolize causing cyclic flow reductions (CFRs) that are quantitated by the frequency and the change in coronary blood flow from low point to peak with each cycle.

[6] = test system: isolated guinea pig hearts; assay: Improved functional recovery in isolated hearts (low flow ischemia/reperfusion); conditions: for Preischemic Flow: Conc. 0.3 (M) as printed; for Functional Recovery: Conc. 0.3 as printed, p < 0.05 vs. Control
Method: The ability of a number of adenosine kinase inhibitors to improve the recovery of post-ischemic function was examined in an isolated guinea pig heart model.
Isolated guinea pig hearts were cannulated via the ascending aorta and-attached to a perfusion apparatus according to the method of Langendorff. The hearts were perfused at a constant pressure of 60 cm of H2 O with a modified Krebs-Hanseleit buffer (pH 7.4) at 37° C. Left ventricular developed pressures (LVDP) were monitored continuously using a latex balloon attached to a pressure transducer. Coronary flows were measured gravimetrically by timed collection of pulmonary effluent. Following equilibration of the hearts for a period of 30 minutes, the hearts were subjected to 45 minutes of low flow ischemia, by reducing the perfusion pressure to 10 cm of H2 O, and then reperfused for 30 minutes by restoring the pressure to its original level (60 cm of H2 O). The adenosine kinase inhibitors BP-1-238, GP-1-515 and GP1-547 were added to the perfusion buffer at the final concentrations specified.

OC[C@H]1O[C@@H](n2cnc3c2N=CNC[C@H]3O)C[C@@H]1O [2'-deoxycoformycin]
effect on adenosine release (rat cardiomyocytes; inhibition of adenosine deaminase alone): no effect on adenosine release

Nc1ncnc2c1c(I)cn2[C@@H]1O[C@H](CO)[C@@H](O)[C@H]1O [5-iodotubercidin]
perfusate adenosine concentration (isolated rat hearts): no increase in perfusate adenosine concentration
effect in ischemia and reperfusion (dog hearts): inconsistent effects
flaccidity and locomotor activity (mice): pronounced general flaccidity and much-reduced spontaneous locomotor activity
hypothermia (mice): cause hypothermia

NC[C@H]1O[C@@H](n2cnc3c(N)ncnc32)[C@H](O)[C@@H]1O [GP-1-238, 5'-amino-5'-deoxyadenosine]
increase of adenosine release without ADA inhibition [1]: not apparent in the absence of ADA inhibition
inhibition of cardiac adenosine kinase in vivo (cardiac adenosine kinase): completely inhibited adenosine kinase in vivo
increase in adenosine release (rat cardiomyocytes; together with ADA inhibition): 6 fold

CNc1ncnc2c1ncn2[C@@H]1O[C@H](CN)[C@@H](O)[C@H]1O [GP-1-272]
inhibition of neutrophil adhesion to endothelial cells [2]: inhibit neutrophil adhesion to endothelial cells; also recorded: dose-dependent inhibition
reversal of inhibition of neutrophil adhesion by adenosine deaminase [2]: reversed by adenosine deaminase treatment; also recorded: reversal of these inhibitions

C[C@H]1O[C@@H](n2cc(I)c3c(N)ncnc32)[C@H](O)[C@@H]1O [GP-1-456, 5'-deoxy-5-iodotubercidin, reference compound]
flaccidity and locomotor activity (mice): pronounced general flaccidity and much-reduced spontaneous locomotor activity
hypothermia (mice): cause hypothermia
inhibition of PTZ induced seizures ([3]; IP 1, 5 and 10 mg/kg): dose-dependent inhibition
reversal of inhibition of PTZ induced seizures ([3]; IP […] with theophylline 34 mg/kg or 8-sulfophenyltheophylline 70 mg/kg): reversal of this inhibition by the central adenosine receptor antagonist theophylline but not the peripheral antagonist 8-sulfophenyltheophylline
attenuation of chemical and electroshock induced seizures [3]: potent effects
oral anticonvulsant activity [3]: exhibit oral anticonvulsant activity
inhibition of neutrophil adhesion to endothelial cells [2]: inhibit neutrophil adhesion to endothelial cells; also recorded: dose-dependent inhibition
reversal of inhibition of neutrophil adhesion by adenosine deaminase [2]: reversed by adenosine deaminase treatment; also recorded: reversal of these inhibitions

NC[C@H]1O[C@@H](n2nc(Br)c3c(N)ncnc32)[C@H](O)[C@@H]1O [GP-1-515]
decline in function / wall thickening with pacing-induced ischemia (anesthetized male dogs): attenuates the decline in wall thickening; also recorded: attenuated the decline in function
inhibition of contraction in the isolated ileum [4]: Inhibition of contraction; also recorded: attenuate contraction; also recorded: dose-dependent inhibition
reversal of inhibition of contraction [4]: reversal by both 8SPT and ADA; also recorded: reversal of these inhibitions
animals in which CFRs were abolished ([5]; Folts model, dogs): 3 of 8 and 3 out of 8
frequency and change in flow of CFRs where not abolished ([5]; dog, in vivo): reduced both the frequency and the change in flow
Preischemic Flow [6]: 6.5 ± 0.3 mL/min/g
Functional Recovery [6]: 79.0 ± 3.4 % preischemic LVDP

NC[C@H]1O[C@@H](n2nc(I)c3c(N)ncnc32)[C@H](O)[C@@H]1O [GP-1-547]
inhibition of contraction in the isolated ileum [4]: Inhibition of contraction; also recorded: attenuate contraction; also recorded: dose-dependent inhibition
reversal of inhibition of contraction [4]: reversal by both 8SPT and ADA; also recorded: reversal of these inhibitions
Preischemic Flow [6]: 6.2 ± 0.3 mL/min/g
Functional Recovery [6]: 79.0 ± 3.1 % preischemic LVDP

C[C@H]1O[C@@H](n2nc(I)c3cncnc32)[C@H](O)[C@@H]1O [GP-1-560, 3-iodo-1-(5'-deoxy-B-D-ribofuranosyl)pyrazolo[3,4-d]pyrimidine]
attenuation of chemical and electroshock induced seizures [3]: potent effects
Latency To First Seizure ([3]; oral 30 mg/kg): 4.5 min
Percent Seizure ([3]; oral 30 mg/kg): 71%
Seizure Score ([3]; oral 30 mg/kg): 0.71 ± 0.5
Percent Seizure ([3]; oral 50 mg/kg): 43%
Seizure Score ([3]; oral 50 mg/kg): 1.0 ± 0.9
Latency To First Seizure ([3]; oral 50 mg/kg, p < 0.05 vs. Control): 7.0 min
oral anticonvulsant activity [3]: exhibit oral anticonvulsant activity
